From ChEMBL document CHEMBL4043185, “Discovery of non-zwitterionic aryl sulfonamides as Nav1.7 inhibitors with efficacy in preclinical behavioral models and translational measures of nociceptive neuron activation” (Bioorg Med Chem, 2017)
One block for each compound: values may come before it.

Legend:
physchem [1] = settings: PAMPA, pH 7.4
physchem [2] = settings: PAMPA, pH 5.5
[3] = Drug concentration in dorsal root ganglion of mouse model of formalin-induced persistent pain at 30 mg/kg, po measured after 90 mins post dose; format: ADME, organism-based; settings: read-out: Drug uptake
[4] = Drug concentration in mouse brain at 100 mg/kg, po measured after 30 mins post dose; format: ADME, organism-based; settings: read-out: Drug uptake
Plasma [5] = assay: Unbound plasma concentration in mouse model of nociceptive flexion reflex 30 mg/kg, ip measured after 60 mins post dose; format: ADME, organism-based; settings: in vivo, 1 h
[6] = Unbound drug concentration in dorsal root ganglion of mouse model of formalin-induced persistent pain at 30 mg/kg, po measured after 90 mins post dose; format: ADME, organism-based; settings: in vivo, 1.5 h
Plasma [7] = assay: Plasma concentration in mouse model of chronic constriction injury-induced cold hyperalgesia at 100 mg/kg, po dosed 30 mins before testing starting 5 weeks after surgery; format: ADME, organism-based; settings: in vivo
[8] = Plasma concentration in mouse at 100 mg/kg, po measured after 30 mins post dose; format: ADME, organism-based
Plasma [9] = assay: Unbound plasma concentration in mouse model of complete Freund's adjuvant-induced inflammatory pain at 60 mg/kg, po measured after 90 mins post dose; format: ADME, organism-based; settings: in vivo, 1.5 h
[10] = Plasma concentration in mouse at 30 mg/kg, po measured after 30 mins post dose; format: ADME, organism-based
[11] = Plasma concentration in mouse model of nociceptive flexion reflex 10 mg/kg, ip measured after 60 mins post dose; format: ADME, organism-based
[12] = Drug concentration in brain of mouse model of complete Freund's adjuvant-induced inflammatory pain at 60 mg/kg, po measured after 90 mins post dose; format: ADME, organism-based; settings: read-out: Drug uptake
[13] = Plasma concentration in mouse model of complete Freund's adjuvant-induced inflammatory pain at 30 mg/kg, po measured after 90 mins post dose; format: ADME, organism-based
[14] = Volume of distribution at steady state in mouse at 2 mg/kg, iv; format: ADME, organism-based; settings: in vivo, read-out: Vdss
[15] = Drug concentration in brain of mouse model of complete Freund's adjuvant-induced inflammatory pain at 10 mg/kg, po measured after 90 mins post dose; format: ADME, organism-based; settings: read-out: Drug uptake
[16] = Half life in mouse at 30 mg/kg, po; format: ADME, organism-based; settings: in vivo
Plasma [17] = assay: Unbound plasma concentration in mouse model of nociceptive flexion reflex 10 mg/kg, ip measured after 60 mins post dose; format: ADME, organism-based; settings: in vivo, 1 h
Plasma [18] = assay: Unbound plasma concentration in mouse model of complete Freund's adjuvant-induced inflammatory pain at 10 mg/kg, po measured after 90 mins post dose; format: ADME, organism-based; settings: in vivo, 1.5 h
[19] = Drug concentration in mouse trigeminal ganglion at 30 mg/kg, po measured after 30 mins post dose; format: ADME, organism-based; settings: read-out: Drug uptake
[20] = Oral bioavailability life in mouse at 30 mg/kg; format: ADME, organism-based; settings: in vivo
[21] = Plasma concentration in mouse model of complete Freund's adjuvant-induced inflammatory pain at 10 mg/kg, po measured after 90 mins post dose; format: ADME, organism-based
[22] = Drug concentration in mouse brain at 100 mg/kg, po measured after 90 mins post dose; format: ADME, organism-based; settings: read-out: Drug uptake
[23] = Plasma concentration in mouse model of nociceptive flexion reflex 30 mg/kg, ip measured after 60 mins post dose; format: ADME, organism-based
[24] = Drug concentration in brain of mouse model of complete Freund's adjuvant-induced inflammatory pain at 30 mg/kg, po measured after 90 mins post dose; format: ADME, organism-based; settings: read-out: Drug uptake
[25] = Plasma concentration in mouse at 100 mg/kg, po measured after 90 mins post dose; format: ADME, organism-based
[26] = Ratio of drug level in brain to plasma of mouse at 100 mg/kg, po measured after 30 mins post dose; format: ADME, organism-based; settings: read-out: BPR
[27] = Ratio of drug level in brain to plasma of mouse at 100 mg/kg, po measured after 90 mins post dose; format: ADME, organism-based; settings: read-out: BPR
Plasma [28] = assay: Unbound plasma concentration in mouse model of formalin-induced persistent pain at 30 mg/kg, po measured after 90 mins post dose; format: ADME, organism-based; settings: in vivo, 1.5 h
[29] = Clearance in mouse at 2 mg/kg, iv; format: ADME, organism-based; settings: in vivo
[30] = Cmax in mouse at 30 mg/kg, po; format: ADME, organism-based; parameters: dose 30 mg/kg, route oral; settings: in vivo
[31] = Drug concentration in trigeminal ganglion of mouse model of formalin-induced persistent pain at 30 mg/kg, po measured after 90 mins post dose; format: ADME, organism-based; settings: read-out: Drug uptake
[32] = Plasma concentration in mouse model of complete Freund's adjuvant-induced inflammatory pain at 60 mg/kg, po measured after 90 mins post dose; format: ADME, organism-based
Plasma [33] = assay: Unbound plasma concentration in mouse model of chronic constriction injury-induced cold hyperalgesia at 100 mg/kg, po dosed 30 mins before testing starting 5 weeks after surgery; format: ADME, organism-based; settings: in vivo
Plasma [34] = assay: Unbound plasma concentration in mouse at 30 mg/kg, po measured after 30 mins post dose; format: ADME, organism-based; settings: in vivo, 0.5 h
[35] = Plasma concentration in mouse model of formalin-induced persistent pain at 30 mg/kg, po measured after 90 mins post dose; format: ADME, organism-based
Plasma [36] = assay: Unbound plasma concentration in mouse model of complete Freund's adjuvant-induced inflammatory pain at 30 mg/kg, po measured after 90 mins post dose; format: ADME, organism-based; settings: in vivo, 1.5 h
[37] = Drug concentration in mouse dorsal root ganglion at 30 mg/kg, po measured after 30 mins post dose; format: ADME, organism-based; settings: read-out: Drug uptake
[38] = Unbound drug concentration in mouse dorsal root ganglion at 30 mg/kg, po measured after 30 mins post dose; format: ADME, organism-based; settings: in vivo, 0.5 h
[39] = PAMPA, pH 5.5

Papp (physchem [1]): 10.1 ×10⁻⁶ cm/s | Papp (physchem [2]): 46.4 ×10⁻⁶ cm/s
SMILES: O=S(=O)(Nc1nccs1)c1cc(Cl)c(NC[C@H]2CC[C@@H](O)CC2)cc1F

concentration at 1.5 h [3]: 660 nM | concentration at 0.5 h [4]: 120 nM | Cp(f) (Plasma [5]): 1900 nM | Drug uptake(free) [6]: 0.07 µM | concentration at 0.5 h [8]: 7340 nM | Cp(f) (Plasma [9]): 59 nM | concentration at 0.5 h [10]: 13000 nM | concentration at 1 h [11]: 29000 nM | concentration at 1.5 h [12]: < 25 nM | concentration at 1.5 h [13]: 1130 nM | Vd [14]: 0.6 L/kg | Papp (physchem [1]): 37.7 ×10⁻⁶ cm/s | concentration at 1.5 h [15]: < 25 nM | half-life [16]: 3 h | Cp(f) (Plasma [17]): 660 nM | Cp(f) (Plasma [18]): 17 nM | concentration at 0.5 h [19]: 5800 nM | bioavailability [20]: 47% | concentration at 1.5 h [21]: 750 nM | concentration at 1.5 h [22]: 42 nM | concentration at 1 h [23]: 82000 nM | concentration at 1.5 h [24]: < 25 nM | concentration at 1.5 h [25]: 3670 nM | Kp at 0.5 h [26]: 0.017 | Kp at 1.5 h [27]: 0.012 | Papp (physchem [2]): 47.7 ×10⁻⁶ cm/s | Cp(f) (Plasma [28]): 170 nM | clearance [29]: 13 mL/min/kg | Cmax [30]: 37000 nM | concentration at 1.5 h [31]: 5000 nM | concentration at 1.5 h [32]: 2560 nM | Cp(f) (Plasma [34]): 300 nM | concentration at 1.5 h [35]: 7300 nM | Cp(f) (Plasma [36]): 26 nM | concentration at 0.5 h [37]: 1100 nM | Drug uptake(free) [38]: 0.11 µM
SMILES: O=S(=O)(Nc1nccs1)c1cc(Cl)c(NC[C@H]2CCCOC2)cc1F
concentration (Plasma [7]): 32000 nM | Cp(f) (Plasma [33]): 740 nM

SMILES: O=S(=O)(Nc1nccs1)c1cc(Cl)c(NCC2CCCC3(C2)OCCO3)cc1F (stereo not given)
Papp (physchem [1]): 41.9 ×10⁻⁶ cm/s | Papp (physchem [2]): 45.1 ×10⁻⁶ cm/s

Papp (physchem [1]): 20.7 ×10⁻⁶ cm/s | Papp (physchem [2]): 54.6 ×10⁻⁶ cm/s
SMILES: O=S(=O)(Nc1nccs1)c1cc(Cl)c(NC[C@H]2CC[C@H](O)CC2)cc1F

SMILES: O=S(=O)(Nc1nccs1)c1cc(Cl)c(NCC2CCCCO2)cc1F (stereo not given)
Papp (physchem [1]): 61 ×10⁻⁶ cm/s | Papp (physchem [2]): 61 ×10⁻⁶ cm/s

Papp [39]: Not Active | Papp (physchem [1]): 67.7 ×10⁻⁶ cm/s
SMILES: CC(C)(C)[C@H]1OCCC[C@@H]1CNc1cc(F)c(S(=O)(=O)Nc2nccs2)cc1Cl (racemic)

Papp (physchem [1]): 43.9 ×10⁻⁶ cm/s
SMILES: CC(C)(C)[C@@H]1OCCC[C@@H]1CNc1cc(F)c(S(=O)(=O)Nc2nccs2)cc1Cl (racemic)

Papp (physchem [1]): 16.2 ×10⁻⁶ cm/s | Papp (physchem [2]): 21.6 ×10⁻⁶ cm/s
SMILES: O=S(=O)(Nc1nccs1)c1cc(Cl)c(NC[C@H]2CCC[C@H](O)C2)cc1F (racemic)

Papp (physchem [1]): 16.2 ×10⁻⁶ cm/s | Papp (physchem [2]): 21.6 ×10⁻⁶ cm/s
SMILES: O=S(=O)(Nc1nccs1)c1cc(Cl)c(NC[C@H]2CCC[C@@H](O)C2)cc1F (racemic)

Papp (physchem [1]): 73.5 ×10⁻⁶ cm/s | Papp (physchem [2]): 42.8 ×10⁻⁶ cm/s
SMILES: O=S(=O)(Nc1nccs1)c1cc(Cl)c(NC[C@H]2CCCO[C@@H]2c2ccccc2)cc1F (racemic)
